Data published in PMC11927960, “Multiparameter ranking of carbazoles for anti-trypanosome lead discovery” (Frontiers in drug discovery, 2024).
Values after ≈ are worked out from the molar mass of the structure shown. Like-named read-outs stand apart in the source and are kept apart here.

Key:
[1] = system: Trypanosoma brucei Lister427; experiment: Recovery of trypanosome proliferation after 6-h exposure to Cmax or AUC0–6h amounts in 50% serum; type: cell-based; conditions: for Trypanocidal or cytostatic outcome: 6-h treatment with Cmax equivalents
Experimental: Recovery of trypanosome proliferation after a 6-h exposure to curaxins
The in vivo plasma exposure of trypanosomes to drug is expressed as area under the curve (AUC) in pharmacokinetic analysis. Theoretically, the same drug exposures in vitro and in vivo will be achieved within 6 h if the in vitro compound concentration × 6 h value was equal to in vivo AUC0–6h. […] AUC0–6h unbound is equal to the AUC0–6h × fraction of drug unbound to plasma (PFU) (Table 4).
Trypanosomes (1 × 10^5/mL) were treated with a concentration equivalent of the AUC0–6h unbound (Table 4) of each compound. After 6 h, cells were washed and resuspended (1 × 10^5 cells/mL) in drug-free medium. […] Proliferation recovery time was recorded post drug wash-off as described above.

[2] = Thermodynamic aqueous solubility (pH 7.4); type: physicochemical; conditions: aqueous buffer, thermodynamic from solid, phosphate buffer pH 7.4, 25 °C, 20–24 h
Experimental: Thermodynamic aqueous solubility (pH 7.4).
Various amounts of compounds in powdered form were added to phosphate buffer (0.1 M, pH 7.4). Suspensions were kept on a shaker at 25 °C for 20–24 h. After centrifugation, compounds in the supernatant were quantified using LC-MS/MS.

T. brucei Lister427 = experiment: Trypanosome proliferation inhibition assay (SYBR Green, 48 h); type: cell-based; conditions: Trypanosoma brucei; continuous exposure 48 h, 4 × 10^3 trypanosomes/mL
Experimental: Trypanosome proliferation inhibition assays
T. b. Lister 427 or T. b. AnTat1.1 were seeded at 4 × 10^3 cells/mL or 2 × 10^3 cells/mL (in 50 μL culture medium), respectively, into 384-well black plate (Greiner; Frickenhausen, Germany) and treated with serial dilutions of each compound in duplicate. Plates were incubated for 48 h at 37 °C and 5% CO2. […] Fluorescence in lysates was quantitated with a fluorometer (Fluoroskan Ascent Microplate Fluorometer, Thermo Scientific) (100 ms; ex: 485 nm, em: 538 nm). Each experiment was performed in triplicate.

[3] = Human liver microsome intrinsic clearance (HLM Clint); type: in vitro ADME; conditions: human liver microsomes, 37 °C
Experimental: Intrinsic metabolic clearance.
The test compound was added to a final concentration of 1 μM, and the residual concentrations were tracked with LC-MS/MS at defined time points.

in vivo = conditions: both sexes, mouse, oral, Swiss Webster mice, 10 consecutive days, read-out: Repeated maximum tolerated dose (rMTD)
Experimental: Maximum tolerated dose of compounds in mice.
To determine a single maximum tolerated dose (sMTD), male and female Swiss Webster mice were first given a single 50 mg/kg dose of compound formulated in N-methyl-2-pyrrolidone (10% v/v) and 0.2% hydroxypropyl methylcellulose (90% v/v). Mice were monitored daily for up to 7 days post-administration for overall condition using a Total Condition Scoring (TCS) system (Supplementary Table S1) and body weight changes. If greater than 20% body weight loss was recorded, the dose was lowered in two-fold amounts in subsequent tests. […] When no toxicity was observed, sMTD values were utilized to determine the repetitive maximum tolerated dose (rMTD). Male and female Swiss-Webster mice were treated with sMTD for 10 consecutive days. […] If adverse effects were recorded, the daily doses were reduced two-fold in follow-up work. At the end of the study, mice were euthanized by CO2 asphyxiation followed by cervical dislocation.

[4] = system: endocytosis of transferrin (Tf) in Trypanosoma brucei; experiment: Endocytosis of transferrin (flow cytometry); type: cell-based; conditions: for Effect on endocytosis of Tf / Endocytosis Transferrin: DTC25; for Increase of Tf endocytosis compared to DMSO: DTC25, 6 h, not statistically significant; for Endocytosis Transferrin: Table S3
Experimental: Cells were washed and resuspended in serum-free medium. Trypanosomes were incubated with fluorescent endocytosis ligands transferrin (Tf) or bovine serum albumin (BSA) for 30 min (37 °C). A flow cytometer was used to detect fluorescence intensity per cell. Propidium iodide (PI) was used to stain and gate out non-viable cells. Histograms present fluorescence intensity of Tf-AF488 (A) or BSA-AF647 (B) for every cell (n > 10,000 for each cargo) in DMSO or drug-treated samples. Points on the scatter plot represent mean fluorescence intensities of Tf (C) or BSA (D) from three biological replicates (calculated with FlowJo). Bars indicate mean ± SD. Student’s t-test was used to evaluate statistical significance of differences in mean intensity of endocytosed ligand in DMSO-treated sample compared to curaxin-treated samples.
Curaxin or DMSO-treated trypanosomes (5 × 10^5/mL) were washed with serum-free HMI-9 medium (500 uL). Trypanosomes were resuspended in serum-free HMI-9 medium (100 μL) supplemented with either transferrin–[…] conjugate (50 μg, Invitrogen, Eugene, OR) or BSA–AlexaFluor647 conjugate (50 μg, Invitrogen, Eugene, OR) for 30 min at 37 °C, 5% CO2. Cells were transferred to an ice-water bath, washed with cold PBS/G at 4 °C (3,000 g for 5 min), resuspended in PBS/G (500 μL) containing propidium iodide (3 μM), and analyzed on a flow cytometer (Beckman Coulter CytoFLEX S). FlowJo software (FlowJo, LLC) was used to gate trypanosomes based on size and shape (forward and side scatter features), and fluorescence intensity of endocytosed protein was measured in viable cells (negative for propidium iodide uptake). FlowJo software was used to determine the mean fluorescence intensity of each cargo in trypanosomes (at least 10,000 events). Data from three independent biological experiments were analyzed with a two-tailed Student’s t-test with unequal variance to determine the possible statistical significance of differences in means of fluorescence intensities of endocytosed cargo.

[5] = Caco-2 bidirectional permeability assay; type: in vitro ADME; conditions: human
Experimental: Caco-2 bidirectional permeability assay.
Caco-2 bidirectional permeability assay was performed at Absorption Systems (Exton, Pennsylvania). Briefly, monolayers of Caco-2 cells (clone C2BBe1) were grown to confluence on collagen-coated, microporous membranes in 12-well plates. Permeability assay buffer (Hanks’ balanced salt solution containing 10 mM HEPES and 15 mM glucose, pH 7.4) in the receiver chamber contained 1% bovine serum albumin. Compounds dissolved in assay buffer (5 μM) were added either on the apical (A) or the basolateral side (B) and incubated at 37 °C with 5% CO2 in a humidified incubator. Samples were collected from donor and receiver chambers at 120 min. Each determination was performed in duplicate. The flux of lucifer yellow dye was measured post-experimentally for each monolayer to ensure that no monolayers were damaged during the flux period with compounds. Drug amounts were determined by LC-MS/MS. Apparent permeability (Papp) and percent recovery were determined as per [Hubatsch et al. (2007)]. The efflux ratio was calculated as Papp (B-to-A)/Papp (A-to-B).

[6] = 6-h treatment with Cmax amount (CBL0137 1.85, CBL0174 1.04, CBL0187 0.72 μM), 50% serum, NR = no recovery 84 h after wash-off
[7] = Caco-2, pH 7.4, Caco-2, direction A-to-B
[8] = Caco-2, pH 7.4, Caco-2, direction B-to-A

## CC(=O)c1cc2c3cc(C(C)=O)c(O)cc3n(CCCN(C)C)c2cc1O [CBL0174, 1-[6-acetyl-9-[3-(dimethylamino)propyl]-2,7-dihydroxy-carbazol-3-yl]ethanone]
[1]
  Latency of proliferation: 66 h
[1]; [6]
  Latency of proliferation: 66 h
[1]; 50% serum
  Trypanocidal or cytostatic outcome: cytostatic
[2]
  solubility: 773 µM (≈ 285 µg/mL)
T. brucei Lister427
  EC50: 21 nM
[3]
  microsomal CLint at 1 μM: 4.89 µL/min/mg
In vivo
  MTD at 10 days: 60 mg/kg
[4]
  Fold increase of Tf endocytosis compared to DMSO: 1.39
  Effect on endocytosis of Tf: did not promote endocytosis of Tf
  Increase of Tf endocytosis compared to DMSO: 39%
  Endocytosis Transferrin: Activated
[5]; [7]
  Papp at 120 min, 5 μM: 17.8 ± 0.35 ×10⁻⁶ cm/s
  recovery at 120 min, 5 μM: 60%
[5]; [8]
  Papp at 120 min, 5 μM: 21.9 ± 3.39 ×10⁻⁶ cm/s
  recovery at 120 min, 5 μM: 86%

## CC(=O)c1cc2c3cc(C(C)=O)c(O)cc3n(CCNC(C)C)c2cc1O [CBL0187, 1-[6-acetyl-2,7-dihydroxy-9-[2-(isopropylamino)ethyl]carbazol-3-yl]ethanone]
[1]
  Latency of proliferation: 30 h
[1]; [6]
  Latency of proliferation: 6 h
[1]; 6-h treatment with Cmax equivalent, 50% serum
  Time to resumption of proliferation (before subtracting 18 h of control): 24 h
[1]; 50% serum
  Trypanocidal or cytostatic outcome: not trypanocidal
[2]
  solubility: 36.3 µM (≈ 13.4 µg/mL)
T. brucei Lister427
  EC50: 8.9 nM
[3]
  microsomal CLint at 1 μM: 12.4 µL/min/mg
In vivo
  MTD at 10 days: 50 mg/kg
[4]
  Fold increase of Tf endocytosis compared to DMSO: 1.31
  Effect on endocytosis of Tf: had no effect on the pathway
  Increase of Tf endocytosis compared to DMSO: 30.9%
  Endocytosis Transferrin: Activated
[5]; [7]
  Papp at 120 min, 5 μM: 14 ± 1.91 ×10⁻⁶ cm/s
  recovery at 120 min, 5 μM: 47%
[5]; [8]
  Papp at 120 min, 5 μM: 21.7 ± 3.39 ×10⁻⁶ cm/s
  recovery at 120 min, 5 μM: 64%
